Test results reported in ChEMBL document CHEMBL3885861, “Open TG-GATES”.

Species on record: Rattus norvegicus
Experiment: Open TG-GATES - Regimen: Daily Repeat
Format: toxicity, organism-based, Sprague-Dawley
Parameters: regimen Daily Repeat, gender Male, age 6 weeks
Conditions: in vivo, po, 1000 mg/kg, route gavage, dose level High; for APTT / Bas / Eos / Fbg / Hb / Ht / Lym / MCH / MCHC / MCV / Mono / Neu / PT / Plat / RBC / Ret / WBC: tissue Blood; for KIDNEY_L / KIDNEY_R / KIDNEY_TOTAL: tissue Kidney; for LIVER: tissue Liver; for A/G / ALP / ALT / AST / BUN / CRE / Ca / Cl / DBIL / GLC / IP / K / LDH / Na / PL / RALB / TBIL / TC / TG / TP / gamma-GTP: tissue Plasma

CCN1CCCC1CNC(=O)c1cc(S(N)(=O)=O)ccc1OC (configuration not stated) [SULPIRIDE]
TERMINAL_BW (72 h, time 3 day): 230.5 g
APTT (72 h, time 3 day): 16.8 s
Bas (72 h, time 3 day): 0%
Eos (72 h, time 3 day): 1.4%
Fbg (72 h, time 3 day): 274.2 mg/dL
Hb (72 h, time 3 day): 14.1 g/dL
Ht (72 h, time 3 day): 42.6%
Lym (72 h, time 3 day): 74.8%
MCH (72 h, time 3 day): 20.7 pg
MCHC (72 h, time 3 day): 33.1%
MCV (72 h, time 3 day): 62.5 fL
Mono (72 h, time 3 day): 2.8%
Neu (72 h, time 3 day): 20.6%
PT (72 h, time 3 day): 13.2 s
Plat (72 h, time 3 day): 128.6 x10_4/uL
RBC (72 h, time 3 day): 682.6 x10_4/ul
Ret (72 h, time 3 day): 4.8%
WBC (72 h, time 3 day): 104.1 x10_2/uL
KIDNEY_L (72 h, time 3 day): 1 g
KIDNEY_R (72 h, time 3 day): 1 g
KIDNEY_TOTAL (72 h, time 3 day): 2 g
LIVER (72 h, time 3 day): 11.1 g
A/G (72 h, time 3 day): 0.8
ALP (72 h, time 3 day): 1652 IU/L
ALT (72 h, time 3 day): 49.2 IU/L
AST (72 h, time 3 day): 62.4 IU/L
BUN (72 h, time 3 day): 16.4 mg/dL
CRE (72 h, time 3 day): 0.2 mg/dL
Ca (72 h, time 3 day): 11.3 mg/dL
Cl (72 h, time 3 day): 103.4 meq/L
DBIL (72 h, time 3 day): 0.01 mg/dL
GLC (72 h, time 3 day): 174.6 mg/dL
IP (72 h, time 3 day): 8.3 mg/dL
K (72 h, time 3 day): 4.5 meq/L
LDH (72 h, time 3 day): 73.8 IU/L
Na (72 h, time 3 day): 140 meq/L
PL (72 h, time 3 day): 161 mg/dL
RALB (72 h, time 3 day): 2.7 g/dL
TBIL (72 h, time 3 day): 0.056 mg/dL
TC (72 h, time 3 day): 82.2 mg/dL
TG (72 h, time 3 day): 112 mg/dL
TP (72 h, time 3 day): 5.7 g/dL
gamma-GTP (72 h, time 3 day): 1 IU/L
TERMINAL_BW ([…], time 7 day): 262.7 g
TERMINAL_BW ([…], time 14 day): 307.6 g
TERMINAL_BW ([…], time 28 day): 370.8 g
APTT ([…], time 7 day): 17.8 s
Bas ([…], time 7 day): 0%
Eos ([…], time 7 day): 1.2%
Fbg ([…], time 7 day): 288 mg/dL
Hb ([…], time 7 day): 14 g/dL
Ht ([…], time 7 day): 42.2%
Lym ([…], time 7 day): 76.6%
MCH ([…], time 7 day): 20.8 pg
MCHC ([…], time 7 day): 33.3%
MCV ([…], time 7 day): 62.6 fL
Mono ([…], time 7 day): 3.2%
Neu ([…], time 7 day): 18.6%
PT ([…], time 7 day): 13.3 s
Plat ([…], time 7 day): 125.3 x10_4/uL
RBC ([…], time 7 day): 673.8 x10_4/ul
Ret ([…], time 7 day): 4.7%
WBC ([…], time 7 day): 87.1 x10_2/uL
APTT ([…], time 14 day): 16.8 s
Bas ([…], time 14 day): 0.2%
Eos ([…], time 14 day): 1%
Fbg ([…], time 14 day): 271 mg/dL
Hb ([…], time 14 day): 14.9 g/dL
Ht ([…], time 14 day): 44.3%
Lym ([…], time 14 day): 72.8%
MCH ([…], time 14 day): 20.1 pg
MCHC ([…], time 14 day): 33.6%
MCV ([…], time 14 day): 59.8 fL
Mono ([…], time 14 day): 2.2%
Neu ([…], time 14 day): 23%
PT ([…], time 14 day): 13.2 s
Plat ([…], time 14 day): 114.6 x10_4/uL
RBC ([…], time 14 day): 742 x10_4/ul
Ret ([…], time 14 day): 3.8%
WBC ([…], time 14 day): 103.9 x10_2/uL
APTT ([…], time 28 day): 17.8 s
Bas ([…], time 28 day): 0%
Eos ([…], time 28 day): 1.6%
Fbg ([…], time 28 day): 278.4 mg/dL
Hb ([…], time 28 day): 15.8 g/dL
Ht ([…], time 28 day): 45.5%
Lym ([…], time 28 day): 80%
MCH ([…], time 28 day): 19.3 pg
MCHC ([…], time 28 day): 34.7%
MCV ([…], time 28 day): 55.5 fL
Mono ([…], time 28 day): 2%
Neu ([…], time 28 day): 15%
PT ([…], time 28 day): 13.3 s
Plat ([…], time 28 day): 111.2 x10_4/uL
RBC ([…], time 28 day): 818.8 x10_4/ul
Ret ([…], time 28 day): 2.5%
WBC ([…], time 28 day): 133.5 x10_2/uL
KIDNEY_L ([…], time 7 day): 1.1 g
KIDNEY_R ([…], time 7 day): 1.2 g
KIDNEY_TOTAL ([…], time 7 day): 2.3 g
KIDNEY_L ([…], time 14 day): 1.2 g
KIDNEY_R ([…], time 14 day): 1.2 g
KIDNEY_TOTAL ([…], time 14 day): 2.3 g
KIDNEY_L ([…], time 28 day): 1.2 g
KIDNEY_R ([…], time 28 day): 1.3 g
KIDNEY_TOTAL ([…], time 28 day): 2.5 g
LIVER ([…], time 7 day): 11.9 g
LIVER ([…], time 14 day): 12.6 g
LIVER ([…], time 28 day): 13.4 g
A/G ([…], time 7 day): 0.9
ALP ([…], time 7 day): 1461.2 IU/L
ALT ([…], time 7 day): 55 IU/L
AST ([…], time 7 day): 74.2 IU/L
BUN ([…], time 7 day): 16.4 mg/dL
CRE ([…], time 7 day): 0.2 mg/dL
Ca ([…], time 7 day): 11 mg/dL
Cl ([…], time 7 day): 103.2 meq/L
DBIL ([…], time 7 day): 0.006 mg/dL
GLC ([…], time 7 day): 171.6 mg/dL
IP ([…], time 7 day): 8 mg/dL
K ([…], time 7 day): 4.3 meq/L
LDH ([…], time 7 day): 62 IU/L
Na ([…], time 7 day): 141 meq/L
PL ([…], time 7 day): 146 mg/dL
RALB ([…], time 7 day): 2.7 g/dL
TBIL ([…], time 7 day): 0.05 mg/dL
TC ([…], time 7 day): 72.6 mg/dL
TG ([…], time 7 day): 94 mg/dL
TP ([…], time 7 day): 5.7 g/dL
gamma-GTP ([…], time 7 day): 1 IU/L
A/G ([…], time 14 day): 0.9
ALP ([…], time 14 day): 1425.6 IU/L
ALT ([…], time 14 day): 41.8 IU/L
AST ([…], time 14 day): 68.2 IU/L
BUN ([…], time 14 day): 16.8 mg/dL
CRE ([…], time 14 day): 0.2 mg/dL
Ca ([…], time 14 day): 11 mg/dL
Cl ([…], time 14 day): 102.6 meq/L
DBIL ([…], time 14 day): 0.008 mg/dL
GLC ([…], time 14 day): 181 mg/dL
IP ([…], time 14 day): 7.9 mg/dL
K ([…], time 14 day): 3.9 meq/L
LDH ([…], time 14 day): 54 IU/L
Na ([…], time 14 day): 140.6 meq/L
PL ([…], time 14 day): 148.4 mg/dL
RALB ([…], time 14 day): 2.7 g/dL
TBIL ([…], time 14 day): 0.056 mg/dL
TC ([…], time 14 day): 80.8 mg/dL
TG ([…], time 14 day): 83.4 mg/dL
TP ([…], time 14 day): 5.9 g/dL
gamma-GTP ([…], time 14 day): 1 IU/L
A/G ([…], time 28 day): 0.8
ALP ([…], time 28 day): 1094.8 IU/L
ALT ([…], time 28 day): 42.6 IU/L
AST ([…], time 28 day): 70.4 IU/L
BUN ([…], time 28 day): 18 mg/dL
CRE ([…], time 28 day): 0.3 mg/dL
Ca ([…], time 28 day): 10.6 mg/dL
Cl ([…], time 28 day): 103 meq/L
DBIL ([…], time 28 day): 0.012 mg/dL
GLC ([…], time 28 day): 169 mg/dL
IP ([…], time 28 day): 7.2 mg/dL
K ([…], time 28 day): 3.9 meq/L
LDH ([…], time 28 day): 55.6 IU/L
Na ([…], time 28 day): 141.8 meq/L
PL ([…], time 28 day): 136.2 mg/dL
RALB ([…], time 28 day): 2.8 g/dL
TBIL ([…], time 28 day): 0.062 mg/dL
TC ([…], time 28 day): 66.2 mg/dL
TG ([…], time 28 day): 87.2 mg/dL
TP ([…], time 28 day): 6.3 g/dL
gamma-GTP ([…], time 28 day): 1 IU/L
